# The source made the active and inactive calls. No cut-off for these calls is given here.
# Tests used:
# Escherichia coli [1] = assay: Photodynamic antimicrobial activity against Escherichia coli ATCC25922 assessed as loss of microbial viability at 2 uM preincubated for 15 mins followed by light irradiation at 81 J/cm^2 dose for 15 mins and measured after 36 hrs; assay type: functional, ATCC 25922; conditions: time 36.5 hrs
# [2] = Octanol-water partition coefficient, logP of the compound at 2 uM after 20 hrs by HPLC analysis; assay type: physicochemical
# Candida albicans [3] = assay: Photodynamic antimicrobial activity against Candida albicans ATCC 14053 preincubated for 15 mins followed by irradiation with 90 mW/cm^2 light for 15 mins and measured after 24 hrs; assay type: functional; conditions: ATCC 14053, light or radiation study, time 24.5 hrs
# [4] = Drug uptake in Staphylococcus aureus ATCC 29213 at 10 uM incubated at 37 degree for 15 mins by UV-vis absorption spectra analysis relative to control; assay type: ADME; conditions: 0.25 h
# Staphylococcus aureus [5] = assay: Photodynamic antimicrobial activity against Staphylococcus aureus […] assessed as loss of microbial viability at 2 uM preincubated for 15 mins followed by light irradiation at 81 J/cm^2 dose for 15 mins and measured after 36 hrs; assay type: functional; conditions: time 36.5 hrs
# Staphylococcus aureus [6] = assay: Photodynamic antimicrobial activity against Staphylococcus aureus ATCC 29213 preincubated for 15 mins followed by irradiation with 90 mW/cm^2 light for 15 mins and measured after 24 hrs; assay type: functional; conditions: ATCC 29213, light or radiation study, time 24.5 hrs
# Escherichia coli [7] = assay: Photodynamic antimicrobial activity against Escherichia coli ATCC25922 assessed as decrease in viable cell log count at 2.5 uM preincubated for 15 mins followed by light irradiation at 81 J/cm^2 dose for 15 mins and measured after 36 hrs; assay type: functional, ATCC 25922; conditions: time 36.5 hrs
# Candida albicans [8] = assay: Photodynamic antimicrobial activity against Candida albicans ATCC14053 assessed as loss of microbial viability at 2 uM preincubated for 15 mins followed by light irradiation at 81 J/cm^2 dose for 15 mins and measured after 36 hrs; assay type: functional; conditions: time 36.5 hrs
# Staphylococcus aureus [9] = assay: Photodynamic antimicrobial activity against methicillin resistant Staphylococcus aureus ATCC43300 preincubated for 15 mins followed by irradiation with 90 mW/cm^2 light for 15 mins and measured after 24 hrs; assay type: functional; conditions: ATCC43300, light or radiation study, time 24.5 hrs
# Escherichia coli [10] = assay: Photodynamic antimicrobial activity against Escherichia coli ATCC25922 assessed as decrease in viable cell log count at 5 uM preincubated for 15 mins followed by light irradiation at 81 J/cm^2 dose for 15 mins and measured after 36 hrs; assay type: functional, ATCC 25922; conditions: time 36.5 hrs
# Escherichia coli [11] = assay: Photodynamic antimicrobial activity against Escherichia coli ATCC 25922 preincubated for 15 mins followed by irradiation with 90 mW/cm^2 light for 15 mins and measured after 24 hrs; assay type: functional; conditions: ATCC 25922, light or radiation study, time 24.5 hrs
# Candida albicans [12] = assay: Drug uptake in Candida albicans ATCC 14053 at 10 uM incubated at 37 degree for 15 mins by UV-vis absorption spectra analysis relative to control; assay type: ADME, organism-based; conditions: 0.25 h
# [13] = Drug uptake in Escherichia coli ATCC 25922 at 10 uM incubated at 37 degree for 15 mins by UV-vis absorption spectra analysis relative to control; assay type: ADME; conditions: 0.25 h
# Escherichia coli [14] = assay: Photodynamic antimicrobial activity against Escherichia coli ATCC25922 assessed as decrease in viable cell log count at 1.25 uM preincubated for 15 mins followed by light irradiation at 81 J/cm^2 dose for 15 mins and measured after 36 hrs; assay type: functional, ATCC 25922; conditions: time 36.5 hrs
# Staphylococcus aureus [15] = assay: Photodynamic antimicrobial activity against Staphylococcus aureus […] assessed as decrease in viable cell log count at 0.31 uM preincubated for 15 mins followed by light irradiation at 81 J/cm^2 dose for 15 mins and measured after 36 hrs; assay type: functional; conditions: time 36.5 hrs
# Staphylococcus aureus [16] = assay: Photodynamic antimicrobial activity against methicillin resistant Staphylococcus aureus ATCC43300 assessed as log count reduction in viable cells at 1.25 uM incubated in dark for 15 mins followed by light irradiation at 81 J/cm^2 dose for 15 mins and measured after 36 hrs; assay type: functional; conditions: time 36.5 hrs
# Escherichia coli [17] = assay: Photodynamic antimicrobial activity against Escherichia coli ATCC25922 assessed as bacterial clearance ratio at 1.25 uM preincubated for 15 mins in dark followed by irradiation with 54 J/cm^2 light for 10 mins and measured after 36 hrs; assay type: functional, ATCC 25922; conditions: time 2185 min, 36.42 h
# Candida albicans [18] = assay: Induction of morphological changes in Candida albicans ATCC 14053 at 10 uM preincubated for 15 mins followed by light irradiation at 90 mW/cm2 for 15 mins by SEM analysis; assay type: functional, organism-based; conditions: time 30.0 min
# Cell membrane [19] = assay: Induction of cell membrane disruption in Candida albicans ATCC14053 at 2.5 uM preincubated for 15 mins followed by irradiated with 81 J/cm^2 light for 15 mins by DAPI staining based confocal laser scanning microscopic analysis; conditions: time 30.0 min
# Escherichia coli [20] = assay: Induction of morphological changes in Escherichia coli ATCC 25922 at 10 uM preincubated for 15 mins followed by light irradiation at 90 mW/cm2 for 15 mins by SEM analysis; assay type: functional, organism-based; conditions: time 30.0 min
# Staphylococcus aureus [21] = assay: Photodynamic antimicrobial activity against methicillin resistant Staphylococcus aureus ATCC43300 assessed as log count reduction in viable cells at 0.625 uM preincubated in dark for 15 mins followed by light irradiation at 81 J/cm^2 dose for 15 mins and measured after 36 hrs; assay type: functional; conditions: time 36.5 hrs
# Escherichia coli [22] = assay: Photodynamic antimicrobial activity against Escherichia coli ATCC25922 assessed as bacterial clearance ratio at 1.25 uM preincubated for 15 mins in dark followed by irradiation with 27 J/cm^2 light for 5 mins and measured after 36 hrs; assay type: functional, ATCC 25922; conditions: time 2180 min, 36.33 h
# Candida albicans [23] = assay: Induction of ROS generation in Candida albicans ATCC14053 at 0.16 to 20 uM preincubated for 15 mins followed by irradiation with 81 J/cm^2 light for 15 mins by DCFH-DA staining-based fluorescence microscopy analysis; assay type: functional, organism-based; conditions: dose 0.16-20 µM, time 30.0 min
# HaCaT [24] = assay: Dark toxicity against human HaCat cells assessed as reduction in cell survival upto 20 uM incubated under dark condition for 15 mins by CCK-8 assay; assay type: cell-based; conditions: 0.25 h
# Staphylococcus aureus [25] = assay: In vivo antibacterial activity against Staphylococcus aureus ATCC29213 infected in Swiss albino mouse assessed as reduction in neutophils count at 10 mg treated on day 2 post infection and followed by irradiation with 81 J/cm^2 light for 15 mins and measured every 3 days upto 8 days by H and E staining analysis; assay type: functional, organism-based; conditions: time 8.0 day
# Staphylococcus aureus [26] = assay: In vivo antibacterial activity against Staphylococcus aureus ATCC29213 infected in Swiss albino mouse assessed as wound healing at 10 mg treated on day 2 post infection and followed by irradiation with 81 J/cm^2 light for 15 mins and measured every 3 days upto 8 days; assay type: functional, organism-based; conditions: time 8.0 day
# Cell membrane [27] = assay: Induction of cell membrane disruption in Staphylococcus aureus ATCC29213 at 2.5 uM preincubated for 15 mins followed by irradiated with 81 J/cm^2 light for 15 mins by DAPI staining based confocal laser scanning microscopic analysis; conditions: time 30.0 min
# Cell membrane [28] = assay: Induction of cell membrane disruption in Escherichia coli ATCC25922 at 5 uM preincubated for 15 mins followed by irradiated with 81 J/cm^2 light for 15 mins by DAPI staining based confocal laser scanning microscopic analysis; conditions: Escherichia coli ATCC 25922, time 30.0 min
# Staphylococcus aureus [29] = assay: Photodynamic antimicrobial activity against Staphylococcus aureus […] assessed as decrease in viable cell log count at 5 uM preincubated for 15 mins followed by light irradiation at 81 J/cm^2 dose for 15 mins and measured after 36 hrs; assay type: functional; conditions: time 36.5 hrs
# Candida albicans [30] = assay: Photodynamic antimicrobial activity against Candida albicans ATCC14053 assessed as reduction in viable cells log count at 0.5 uM preincubated in dark for 15 mins followed by light irradiation at 81 J/cm^2 dose for 15 mins and measured after 36 hrs; assay type: functional; conditions: time 36.5 hrs
# Escherichia coli [31] = assay: Photodynamic antimicrobial activity against Escherichia coli ATCC25922 assessed as bacterial clearance ratio at 1.25 uM preincubated for 15 mins in dark followed by irradiation with 81 J/cm^2 light for 15 mins and measured after 36 hrs; assay type: functional, ATCC 25922; conditions: time 2190 min, 36.5 h
# Escherichia coli [32] = assay: Photodynamic antimicrobial activity against Escherichia coli ATCC25922 assessed as bacterial clearance ratio at 1.25 uM preincubated for 15 mins in dark followed by irradiation with 81 J/cm^2 light for 20 to 25 mins and measured after 36 hrs; assay type: functional, ATCC 25922; conditions: time 2195-2200 min
# Staphylococcus aureus [33] = assay: Induction of morphological changes in Staphylococcus aureus ATCC 29213 at 10 uM preincubated for 15 mins followed by light irradiation at 90 mW/cm2 for 15 mins by SEM analysis; assay type: functional, organism-based; conditions: time 30.0 min
# Candida albicans [34] = assay: Photodynamic antimicrobial activity against Candida albicans ATCC14053 assessed as reduction in viable cells log count at 1 uM preincubated in dark for 15 mins followed by light irradiation at 81 J/cm^2 dose for 15 mins and measured after 36 hrs; assay type: functional; conditions: time 36.5 hrs
# HaCaT [35] = assay: Cytotoxicity against human HaCat Cells assessed as reduction in cell survival preincubated for 15 mins followed by irradiated with light at 81 J/cm^2 for 15 mins and measured after 24 hrs by CCK-8 assay; assay type: cell-based; conditions: light or radiation study
# Staphylococcus aureus [36] = assay: Photodynamic antimicrobial activity against methicillin resistant Staphylococcus aureus ATCC43300 assessed as loss of microbial viability at 2 uM preincubated for 15 mins followed by light irradiation at 81 J/cm^2 dose for 15 mins and measured after 36 hrs; assay type: functional; conditions: time 36.5 hrs
compound,measurement,setting,value
CC1=C(I)C(C)=[N+]2C1=C(c1cccc[n+]1C)c1c(C)c(I)c(C)n1[B-]2(F)F.[I-],Activity,Escherichia coli [1],99.3%
same,"logP at 20 h, 2 µM",[2],0.17
same,MIC,Candida albicans [3],2.5 µM
same,Drug uptake,[4],4%
same,Activity,Staphylococcus aureus [5],99.9%
same,MIC,Staphylococcus aureus [6],10 µM
same,log(activity),Escherichia coli [7],5.26
same,Activity,Candida albicans [8],77%
same,MIC,Staphylococcus aureus [9],1.25 µM
same,log(activity),Escherichia coli [10],6.62
same,MIC,Escherichia coli [11],1.25 µM
same,Drug uptake,Candida albicans [12],4%
same,Drug uptake,[13],10%
same,log(activity),Escherichia coli [14],2.53
CC1=C(I)C(C)=[N+]2C1=C(c1ccccn1)c1c(C)c(I)c(C)n1[B-]2(F)F,"logP at 20 h, 2 µM",[2],> 4
CCCCCCC[n+]1cccc(C2=C3C(C)=C(I)C(C)=[N+]3[B-](F)(F)n3c(C)c(I)c(C)c32)c1.[I-],"logP at 20 h, 2 µM",[2],> 4
same,MIC,Candida albicans [3],1.25 µM
same,Drug uptake,[4],72%
same,Activity,Staphylococcus aureus [5],>99.9999%
same,MIC,Staphylococcus aureus [6],2.5 µM
same,Activity,Candida albicans [8],Active
same,MIC,Staphylococcus aureus [9],0.63 µM
same,MIC,Escherichia coli [11],0.63 µM
same,Drug uptake,Candida albicans [12],27%
same,Drug uptake,[13],61%
CC1=C(I)C(C)=[N+]2C1=C(c1ccc[n+](C)c1)c1c(C)c(I)c(C)n1[B-]2(F)F.[I-],Activity,Escherichia coli [1],99.9999%
same,log(activity),Staphylococcus aureus [15],3.59
same,log(activity),Staphylococcus aureus [16],>6.7
same,Activity,Escherichia coli [17],99.97%
same,Activity,Candida albicans [18],inactive
same,Activity,Cell membrane [19],Active
same,"logP at 20 h, 2 µM",[2],1.44
same,Activity,Escherichia coli [20],inactive
same,MIC,Candida albicans [3],0.63 µM
same,Drug uptake,[4],56%
same,log(activity),Staphylococcus aureus [21],3.8
same,Activity,Escherichia coli [22],99.23%
same,Activity,Candida albicans [23],Active
same,Activity,Staphylococcus aureus [5],>99.9999%
same,Activity,HaCaT [24],Non-Toxic
same,Activity,Staphylococcus aureus [25],Active
same,MIC,Staphylococcus aureus [6],1.25 µM
same,Activity,Staphylococcus aureus [26],Active
same,Activity,Candida albicans [8],>99.9%
same,MIC,Staphylococcus aureus [9],0.63 µM
same,MIC,Escherichia coli [11],0.63 µM
same,Drug uptake,Candida albicans [12],9%
same,Activity,Cell membrane [27],Active
same,Activity,Cell membrane [28],Active
same,Drug uptake,[13],47%
same,log(activity),Staphylococcus aureus [29],7.05
same,Activity,Candida albicans [30],98%
same,Activity,Escherichia coli [31],>99.9998%
same,Activity,Escherichia coli [32],>99.9998%
same,Activity,Staphylococcus aureus [33],inactive
same,Activity,Candida albicans [34],99.99%
same,IC50,HaCaT [35],3.86 µM
CC1=C(I)C(C)=[N+]2C1=C(c1ccc[n+](Cc3ccccc3)c1)c1c(C)c(I)c(C)n1[B-]2(F)F.[Br-],"logP at 20 h, 2 µM",[2],> 4
same,MIC,Candida albicans [3],1.25 µM
same,Drug uptake,[4],80%
same,Activity,Staphylococcus aureus [5],>99.9999%
same,MIC,Staphylococcus aureus [6],2.5 µM
same,Activity,Candida albicans [8],Active
same,MIC,Staphylococcus aureus [9],0.63 µM
same,MIC,Escherichia coli [11],0.63 µM
same,Drug uptake,Candida albicans [12],25%
same,Drug uptake,[13],68%
CC1=C(I)C(C)=[N+]2C1=C(c1cccnc1)c1c(C)c(I)c(C)n1[B-]2(F)F,"logP at 20 h, 2 µM",[2],> 4
CC1=C(I)C(C)=[N+]2C1=C(c1ccncc1)c1c(C)c(I)c(C)n1[B-]2(F)F,"logP at 20 h, 2 µM",[2],> 4
CC1=C(I)C(C)=[N+]2C1=C(c1cc[n+](C)cc1)c1c(C)c(I)c(C)n1[B-]2(F)F.[I-],Activity,Escherichia coli [1],99.4%
same,"logP at 20 h, 2 µM",[2],2.14
same,MIC,Candida albicans [3],2.5 µM
same,Drug uptake,[4],65%
same,Activity,Staphylococcus aureus [36],Active
same,Activity,Staphylococcus aureus [5],Active
same,MIC,Staphylococcus aureus [6],2.5 µM
same,Activity,Candida albicans [8],77%
same,MIC,Staphylococcus aureus [9],1.25 µM
same,MIC,Escherichia coli [11],1.25 µM
same,Drug uptake,Candida albicans [12],23%
same,Drug uptake,[13],53%

# Source: ChEMBL document CHEMBL5034041, “Discovery of Meso-(meta-Pyridinium) BODIPY Photosensitizers: In Vitro and In Vivo Evaluations for Antimicrobial Photodynamic Therapy” (J Med Chem, 2021)
